Common to all, as to format: physicochemical
The nature of series [1]: Antioxidant activity assessed as DPPH radical scavenging activity measured as discoloration incubated for 30 mins in dark. (In general: DPPH is a stable violet radical that fades when it is reduced.)
Series [2] in a line: Antioxidant activity assessed as DPPH radical scavenging activity measured as discoloration incubated for 30 mins in dark relative to control. Particulars: 0.5 h.
The nature of series [3]: Antioxidant activity assessed as ferric ion reducing activity using fe3+-TPTZ assessed as fe2+-TPTZ formation after 30 mins by FRAP assay. Conditions: 0.5 h.

The text below walks through data of ChEMBL document CHEMBL3632520, “Correlation of antioxidant activities with theoretical studies for new hydrazone compounds bearing a 3,4,5-trimethoxy benzyl moiety” (Eur J Med Chem, 2015).

In brackets after ≈: the same amount, converted by molar mass.

Broadly, the IC50 is the concentration at which inhibition is half-maximal. With `COc1cc(/C=N/NC(=O)c2ccc(OCc3cc(OC)c(OC)c(OC)c3)cc2)cc(OC)c1O`, in series [1], the IC50 was 75 µg/mL (≈ 151 µM). For the same compound, the “inhibition (INH)” value in series [2] is 57.9%. Also, in series [3], the Activity came to 2087 µM.

For `COc1cc(COc2ccc(C(=O)N/N=C/c3cc(Br)cc(Cl)c3O)cc2)cc(OC)c1OC`, the IC50 in series [1] is more than 100 µg/mL. Moreover, the “inhibition (INH)” value in series [2] was found to be 15.6%. The Activity in series [3] amounted to 125 µM.

Turning to `COc1cc(COc2ccc(C(=O)N/N=C/c3ccccc3O)cc2)cc(OC)c1OC`, the IC50 in series [1] was more than 100 µg/mL. In addition, the “inhibition (INH)” value in series [2] is on record as 9.6%. The Activity in series [3] amounted to 26 µM.

In the case of `COc1cc(COc2ccc(C(=O)N/N=C/c3cc(C(C)(C)C)c(O)c(C(C)(C)C)c3)cc2)cc(OC)c1OC`, the IC50 in series [1] was 62 µg/mL (≈ 113 µM). Moreover, in series [2], the “inhibition (INH)” value stood at 75.3%. Moreover, the Activity in series [3] stood at 1096 µM.

Consider `COc1cc(COc2ccc(C(=O)NN)cc2)cc(OC)c1OC`, for which the IC50 in series [1] came to 264 µg/mL (≈ 794 µM). In addition, the “inhibition (INH)” value in series [2] is on record as 37.2%. Also, the Activity in series [3] is 3515 µM.

Turning to `CCOc1cc(/C=N/NC(=O)c2ccc(OCc3cc(OC)c(OC)c(OC)c3)cc2)ccc1O`, the IC50 in series [1] is 106 µg/mL (≈ 221 µM). Besides, the “inhibition (INH)” value in series [2] turned out to be 53.3%. For the same compound, the Activity in series [3] is 1844 µM.

As to `COc1cc(/C=N/NC(=O)c2ccc(OCc3cc(OC)c(OC)c(OC)c3)cc2)cc(OC)c1OC`, in series [1], the 50% inhibitory concentration (IC50) is more than 100 µg/mL. For the same compound, in series [2], the “inhibition (INH)” value was 10.4%. Further, the Activity in series [3] was determined as 1365 µM.

With `CCOC(=O)c1ccc(OCc2cc(OC)c(OC)c(OC)c2)cc1`, in series [1], the IC50 is more than 100 µg/mL. Moreover, in series [2], the “inhibition (INH)” value is 10.8%. For the same compound, in series [3], the Activity amounted to 27 µM.

`Cc1cc(C(C)(C)C)c(O)c(C(C)(C)C)c1` [BUTYLATED HYDROXYTOLUENE]: the concentration for half-maximal inhibition (IC50) in series [1] was determined as 99.7 µg/mL (≈ 452 µM). For the same compound, the “inhibition (INH)” value in series [2] is on record as 54.8%. The Activity in series [3] was 2837 µM.

As to `O=C1O[C@H]([C@@H](O)CO)C(O)=C1O` [ASCORBIC ACID], the IC50 in series [1] turned out to be 40 µg/mL (≈ 227 µM). The “inhibition (INH)” value in series [2] is reported as 90.6%. Further, the Activity in series [3] was found to be 2562 µM.

In the case of `COc1cc(COc2ccc(C(=O)N/N=C/c3cccc(O)c3)cc2)cc(OC)c1OC`, in series [1], the IC50 is more than 100 µg/mL. Besides, the “inhibition (INH)” value in series [2] was determined as 9.3%. Moreover, the Activity in series [3] worked out at 1819 µM.

As for `COc1cc(COc2ccc(C(=O)N/N=C/c3ccc(O)cc3)cc2)cc(OC)c1OC`, in series [1], the IC50 is more than 100 µg/mL. For the same compound, the “inhibition (INH)” value in series [2] is on record as 18.7%. Further, the Activity in series [3] was 3056 µM.

As for `COc1cc(COc2ccc(C(=O)N/N=C/c3ccc(OC)c(OC)c3OC)cc2)cc(OC)c1OC`, the IC50 in series [1] was more than 100 µg/mL. The “inhibition (INH)” value in series [2] is 10.4%. Moreover, in series [3], the Activity was 1609 µM.
